Experimental data taken from patent US10077446B2, “Glucan-encapsulated siRNA for treating type 2 diabetes mellitus” (The United States of America, as represented by THE …, priority 2013, dated 2018).

Legend:
Assay type in all cases: in vivo, rat
[1] = tested on: Zucker diabetic fatty (ZDF) rats; assay: 28-day oral JD5037 treatment of 8-week-old diabetic ZDF rats
Excerpt: Zucker diabetic fatty (ZDF) rats were used to assess the role of endocannabinoids and CB1R in glycemic control and β-cell loss Animal protocols were approved by the Institutional Animal Care and Use Committee of the NIAAA, NIH. Male ZDF rats with their lean controls were obtained from Charles River Laboratories (Wilmington, Mass. 01887, USA). Rats were individually housed and maintained under a 12-h light/dark cycle and fed ad libitum with a standard laboratory diet (STD, NIH-31 rodent diet).
ZDF rats received JD5037 or vehicle (4% DMSO+1% Tween 80 in PBS) by oral gavage according to 2 different protocols. JD5037 was synthesized and its pharmacological properties analyzed as described earlier (Tam, et al. 2012 Cell Metab 16, 167-179). […]
(§1) In the first one, 8-week old diabetic ZDF rats were given 3 mg/kg JD5037 or vehicle for 28 days with lean controls receiving vehicle only. In the second protocol, similar treatment was started in 6-week old pre-diabetic ZDF rats and age-matched lean controls, and treatment continued for 12 weeks until the age of 18 weeks. Body weight and food intake were monitored daily. At the end of treatment in both protocols, rats were sacrificed by decapitation, the brain, liver, kidney, pancreas and combined fat pads were removed, weighed, and snap-frozen in liquid nitrogen or fixed in formalin, and trunk blood was collected for determining endocrine and biochemical parameters. Adiposity index was defined as the combined weight of the epidydimal, retroperitoneal and inguinal fat pads, expressed as % of total body weight. In the second protocol, blood samples were taken weekly to assess the progression of T2DM by measuring blood glucose and monthly to measure insulin and c-peptide levels.
Blood glucose levels were determined using the Elite glucometer (Bayer, Pittsburgh, Pa.). […] Plasma insulin was measured using the Ultra Sensitive rat Insulin ELISA kit (Crystal Chem Inc). Hemoglobin A1c was determined using the Rat Hemoglobin A1c (HbA1c) assay kit (Crystal Chem) and c-peptide was quantified by ELISA (C-peptide (rat) ELISA, ALPCO). Serum leptin and adiponectin were determined by ELISA (B-Bridge International). α-amylase, lipase, and uric acid concentrations were determined using commercially available colorimetric kits (BioAssay Systems). TNF-α and IL-1β were determined using TNF-α ELISA Kit (for Lysates) (RayBiotech, Inc.) and IL1β Rat ELISA Kit (Abeam), respectively.
To determine intra-hepatic triglyceride and cholesterol content, liver tissue was extracted as described previously (Folch, et al. 1957 J Biol Chem 226:497-509). After extraction, 0.5 ml of organic phase was transferred to a clean tube containing 1 ml of 2% Triton X-100 in chloroform and dried using nitrogen. The residue was re-solubilized in 1 ml of distilled water and used for triglycerides content using EnzyChrom™ Triglyceride Assay Kit.
Pancreas was fixed in 10% neutral buffered formalin (NBF), embedded in paraffin and sectioned ([…]) onto glass slides. […] For detection, secondary Ab coupled to FITC or PE were used (Table 2). Images were viewed with a Fluoview FV10i confocal microscope system (Olympus). […]

[2] = tested on: Zucker diabetic fatty (ZDF) rats; assay: Hyperinsulinemic euglycemic clamp in ZDF rats
Procedure: Clamps and glucose tracer analyses in conscious, cannulated rats were performed as described: right jugular vein of 3 rats per group was catheterized a week prior to the experiment, and clamps were performed by continuous infusion of insulin at 3 mU/kg/min and co-infusion of 3H-D-glucose to maintain euglycemia. The protocol for radioactive clamps to evaluate glucose fluxes was adapted from Buettner, et al. (Buettner, et al. 2005 J Clin Invest 115:1306-1313). 3H-D-glucose (Perkin Elmer) was first infused at 0.8 μCi/min for one minute and then at 0.04 μCi/min for 2 h prior to insulin infusion, and the tritiated glucose infusion was pursued during the rest of the experiment at the same rate. 10 μl of blood were sampled from the tail 15 and 5 min before starting insulin infusion and 30, 20, 10 minutes before the end of the experiment.
Blood samples were centrifuged in order to obtain serum. Serum was snap frozen on dry ice and, once all the samples were available, 5 μl serum was transferred to 25 μl dionized water and then mixed with 25 μl of 0.1N ZnSO4. Samples were precipitated with addition of 25 μl of 0.1N Ba(OH)2. After centrifugation, the supernatant was dried overnight, resuspended in water, and counted in scintillation liquid. Glucose turnover was calculated as the ratio of tritiated glucose infusion rate over the specific activity of blood glucose.

[3] = tested on: Zucker diabetic fatty (ZDF) rats; assay: Glucose-stimulated insulin secretion in intact ZDF rats and isolated islets
Procedure: Rats were fasted for 12 h, and tail blood was collected to determine basal insulin and c-peptide levels. Rats were then given glucose (3 g/kg) orally by gavage, and, 5 minutes later, tail blood was again collected for determining insulin and c-peptide levels, with the difference over baseline insulin considered as a measure of glucose-induced insulin release, and the comparison with parallel changes in c-peptide levels used to assess the role of insulin production vs. clearance in the observed change in plasma insulin levels.
After 4 days recovery, pancreata from treated animals were inflated via the common bile duct with a solution of LIBERASE™ TL Research Grade (1.18 U/ml, Roche Diagnostics) and digested for 30 min at 37° C. Islets were purified on a discontinuous Ficoll gradient (GE HEALTHCARE) and hand-picked under a stereomicroscope for immediate assessment of […] function by static incubation. Right after isolation, batches of 4 islets were pre-incubated for 2 h in RPMI 1640 containing NaHCO3 (2 g/l), HEPES (25 mM), 10% (v/v) neonatal calf serum (Invitrogen), pH 7.2, and 0.5 g/L glucose at 37° C. in an incubator containing 5% CO2. This was followed by successive 1 h incubations in the presence of 0.5, 1, 1.5, 2, and 3 g/L glucose. Supernatants were collected in each step for insulin quantification (Crystal Chem Inc). […]

[4] = tested on: Zucker diabetic fatty (ZDF) rats; assay: 12-week JD5037 treatment of 6-week-old pre-diabetic ZDF rats; conditions: pre-diabetic 6-week-old ZDF rats, daily JD5037 for 3 months
Procedure: as §1, with “In the second protocol, blood samples were taken weekly to assess the progression of T2DM by measuring blood glucose and monthly to measure insulin and c-peptide levels.” left out
Blood glucose levels were determined using the Elite glucometer (Bayer, Pittsburgh, Pa.). […] Plasma insulin was measured using the Ultra Sensitive rat Insulin ELISA kit (Crystal Chem Inc). Hemoglobin A1c was determined using the Rat Hemoglobin A1c (HbA1c) assay kit (Crystal Chem) and c-peptide was quantified by ELISA (C-peptide (rat) ELISA, ALPCO). Serum leptin and adiponectin were determined by ELISA (B-Bridge International). α-amylase, lipase, and uric acid concentrations were determined using commercially available colorimetric kits (BioAssay Systems). […]

[5] = ZDF rats, 3 mg/kg JD5037 oral, 28 days
[6] = plasma, ZDF rats, 3 mg/kg/day JD5037 for 28 days, mean ± SEM

Question: Which results are given for CC(C)[C@H](N/C(=N\S(=O)(=O)c1ccc(Cl)cc1)N1C[C@H](c2ccccc2)C(c2ccc(Cl)cc2)=N1)C(N)=O [JD5037, (S)-2-((S,E)-3-(4-chlorophenyl)-N′-((4-chlorophenyl)sulfonyl)-4-phenyl-4,5-dihydro-1H-pyrazole-1-carboximidamido)-3-methylbutanamide]?
Answer: elevated Nlrp3, IL-1β, IL-18, p65 NFκB, caspase-1 activity, TXNIP and IL-1 receptor mRNA ([1]; ZDF islets/pancreas, JD5037 28 days): completely reversed; ASC mRNA ([1]; ZDF pancreas, JD5037 4 weeks): normalized; small increase in AIM-2 expression ([1]; ZDF pancreas, JD5037 4 weeks): unaffected; expression of the IL-1R antagonist ([1]; ZDF pancreas, JD5037 28 days): increased; body weight or adiposity [1, 5]: did not affect; food intake [1, 5]: small reduction; hyperglycemia of ZDF rats [1, 5]: completely reversed; hyperinsulinemia (along with increased C-peptide levels) [1, 5]: paradoxically enhanced; steatosis, associated hepatocellular damage, increased lipogenic gene expression [1, 5]: greatly attenuated; fasting blood glucose and HbA1c ([1]; ZDF rats, 3 mg/kg JD5037 oral, 28 days, FIG. 1c): normalizes; Tunel-positive islet cells ([1]; ZDF rats, JD5037 4 weeks): reduced number; decreased plasma adiponectin and pancreatic expression of adipoR1 and adipoR2 ([1]; ZDF rats, JD5037 4 weeks): reversed; insulin mRNA and protein in ZDF islets ([1]; ZDF rats, JD5037 4 weeks): normalized; reduced pancreatic expression of glucokinase (Glck) and Glut2 ([1]; ZDF rats, JD5037 4 weeks): normalized; increased pancreatic anandamide levels ([1]; ZDF rats, JD5037 4 weeks, LC/MS/MS): normalized; macrophage infiltration of islets ([1]; ZDF rats, JD5037 28 days): reduced; rise in expression of CB1R in islets ([1]; ZDF vs. lean rats, JD5037 4 weeks): reversed; Adiponectin [1, 6]: 5.70 ± 0.07 µg/mL; Cholesterol [1, 6]: 104.8 ± 3.85 mg/dL; IL-1β [1, 6]: 7.63 ± 0.78 ng/mL; Leptin [1, 6]: 9.48 ± 0.31 ng/mL; TG [1, 6]: 817.6 ± 31.36 mg/dL; TNF-α [1, 6]: 0.83 ± 0.07 pg/mL; Uric acid [1, 6]: 2.57 ± 0.04 µg/mL; insulin resistance [2]: not significantly affected; peripheral glucose uptake ([2]; FIG. 1d): slightly improves; elevated basal insulin levels ([3]; ZDF rats, JD5037-treated): did not affect; GSIS (glucose-stimulated insulin secretion) ([3]; both in vivo and in vitro (isolated islets)): restored; hyperglycemia [4]: attenuated and its development delayed; rapid decline in plasma insulin and c-peptide [4]: largely prevented
